Earlier results as cited in patent US20080102106A1, “Wound Healing Composition Comprising Substances From Diptera Larvae” (ALPHA-BIOCARE GMBH, priority 2005, published 2008).

Conditions: many cases of use in humans, dermatological studies

| Structure (SMILES) | wound healing effect |
| --- | --- |
| NC(=O)NC1NC(=O)NC1=O (stereo not drawn) [allantoin] | do not have any wound healing effect |
| N [ammonium] | do not have any wound healing effect |
| NC(N)=O [urea] | do not have any wound healing effect |
